For orientation: refractive index means a measure of how strongly the sample bends light. A word on the mass density: it is the mass of a sample divided by its volume.

Data set [1] is described as follows: refractive index (Na D-line) (dimensionless). The following applies: 101.33 kPa, Liquid, Standard Abbe refractometry.
The conditions of data set [2]: Liquid; for mass density: 101.33 kPa, Vibrating tube method; for Normal boiling temperature: Closed cell (Static) method.
Data set [3] in a line: refractive index (Na D-line) (dimensionless); xn = mol fraction of the nth substance listed. To be noted: 294.15 K; 101 kPa; Liquid; Standard Abbe refractometry; x2 = 0.75.
The nature of data set [4]: xn = mol fraction of the nth substance listed. The following applies: 293.15 K; 101 kPa; Liquid; Vibrating tube method; x2 = 0.75.

± gives the expanded uncertainty stated by the source.

On to `CC(C)OC(C)C` [diisopropyl ether], for which the refractive index in data set [1] (298.15 K) is 1.3655 ± 0.0004. Further, the mass density in data set [2] (298.15 K) came to 719 ± 0.4 kg/m3. In addition, in data set [2], the Normal boiling temperature stood at 68.20 ± 0.2 °C.
Take `CCC(=O)O` [propanoic acid]: the refractive index in data set [1] (293.15 K) was 1.3808 ± 0.0004. For the same compound, the mass density in data set [2] (298.15 K) was found to be 988.1 ± 0.5 kg/m3. Also, the Normal boiling temperature in data set [2] stood at 141.10 ± 0.2 °C.
For the compound `CCCCCOC(C)=O` [pentyl ethanoate], the refractive index in data set [1] (293.15 K) came to 1.4025 ± 0.0006. Moreover, in data set [2] (293.15 K), the mass density amounted to 875.9 ± 0.8 kg/m3. Besides, in data set [2], the Normal boiling temperature worked out at 149.10 ± 0.2 °C.
On the same counts, the results for `O=CO` [formic acid] are 1.3711 ± 0.0006, 1218.5 ± 1.4 kg/m3 and 100.90 ± 0.2 °C.
For the compound `CC(=O)O` [acetic acid], in data set [1] (293.15 K), the refractive index is listed as 1.3721 ± 0.0004. Further, in data set [2] (298.15 K), the mass density is given as 1044.5 ± 0.6 kg/m3. Besides, in data set [2], the Normal boiling temperature worked out at 117.90 ± 0.2 °C.
As to `CC(=O)CC(C)CC(C)C` (configuration not stated) [4,6-dimethyl-2-heptanone] + CC(C)CC(=O)CC(C)C, in data set [3], the refractive index is recorded as 1.4118 ± 0.0005. The mass density in data set [4] was determined as 806.5 ± 0.5 kg/m3.

For the origin of these results see the NIST ThermoML archive (doi:10.1016/j.fluid.2011.09.014).
